{
  "source": "patent US20130005696A1",
  "about": "“BUFADIENOLIDE DERIVATIVES, PREPARING PROCESS THEREOF, COMPOSITION COMPRISING THE SAME AND THE USE THEREOF” (priority 2011, published 2013)",
  "key": {"[1]": {"system": "HeLa human cervical carcinoma cell line", "experiment": "In vitro antitumor activity assay (SRB), HeLa", "type": "cell-based", "conditions": "read-out: IC50, inhibitory activity on cell proliferation of HeLa cell line", "description": "(§1) HeLa human cervical carcinoma cell line, A-549 human non-small cell lung carcinoma cell line, NCI-H2228 human lung carcinoma cell line, NCI-H460 human lung carcinoma cell line, MDA-MB-231 human breast carcinoma cell line, MCF-7 human breast carcinoma cell line, Bel-7402 human hepatic carcinoma cell line, Hep3B human hepatic carcinoma cell line, QGY-7703 human hepatic carcinoma cell line, MV-4-11 human leukemic cell line, DAUDI human leukemic cell line, Jurkat human leukemic cell line, A498 renal carcinoma cell line, LoVo human colon carcinoma cell line, HCT1116 human colon carcinoma cell line, A431 human skin carcinoma cell line, PANC-1 human pancreatic carcinoma cell line, U87-MG human brain carcinoma cell line, SH-SY5Y human brain carcinoma cell line, RPMI-8226 human bone carcinoma cell line, HT1080 human fibrosarcoma cell line, PC-3 human prostatic carcinoma cell line, AGS human gastric adenocarcinoma cell line, and BGC-823 human gastric adenocarcinoma cell line were purchased from the Cell Bank of the Chinese Academy of Sciences.\n(§2) The positive control is bufalin (formulated according to the common method), its purity is 98% or more by HPLC-UV and its structure is identified by NMR. The compounds to be tested and the positive control were diluted with normal saline with a concentration gradient of 10^−4 M, 10^−5 M, 10^−6 M, 10^−7 M and 10^−8 M.\n(§3) According to cell growth rate, tumor cells in the log phase of growth were seeded into 96-well culture plates at 100 μL per well, and allowed to attach for 24 hours, followed by addition of a test compound or positive control at 10 μL per well. For each concentration, the test was carried out in triplicate wells. Solvent control wells with addition of normal saline into cell culture and a blank well containing only cell culture medium but without cells for zeroing were also included. The tumor cells were incubated for 72 hours at 37° C. under 5% CO2, and then the culture medium (RPMI-1640) was removed. The cells were fixed with 10% cool TCA by incubating for 1 h at 4° C., washed with distilled water for 5 times, and dried naturally in the air. A solution of SRB (Sigma) (4 mg/mL) in 1% glacial acetic acid was added at 100 μL per well, and the cells were stained for 15 minutes at room temperature, and the supernatant was discarded. The plates were washed for 5 times with 1% acetic acid, and dried in air. Finally, Tris solution was added at 150 μL per well, and the absorbance (A) was measured at a wavelength of 515 nm using a microplate reader. The growth inhibition on tumor cell proliferation was calculated according to the following equation:\n(§4) Growth Inhibition (%)=[(Absorbance of negative control−Absorbance of blank)−(Absorbance of sample−Absorbance of blank)]/(Absorbance of negative control−Absorbance of blank)×100%\n(§5) Drug concentration: 10 μM, 1 μM, 0.1 μM, 10 nM, 1 nM, 0.1 nM.\n(§6) IC50 was fitted by GraphPad Prism 4."}, "[2]": {"system": "A-549 human non-small cell lung carcinoma cell line", "experiment": "In vitro antitumor activity assay (SRB), A549", "type": "cell-based", "conditions": "Homo sapiens; A549, 72 h, Table 3; read-out: IC50 (72 h), A549", "description": "as §1, §2, §3, §4, §5, §6"}, "[3]": {"system": "MCF-7 human breast carcinoma cell line", "experiment": "In vitro antitumor activity assay (SRB), MCF-7", "type": "cell-based", "conditions": "Homo sapiens, MCF7; MCF-7, 72 h, Table 3; read-out: IC50 (72 h), MCF-7", "description": "as §1, §2, §3, §4, §5, §6"}, "[4]": {"system": "PC-3 human prostatic carcinoma cell line", "experiment": "In vitro antitumor activity assay (SRB), PC-3", "type": "cell-based", "conditions": "Homo sapiens, Prostatic carcinoma cell; PC-3, 72 h, Table 3; read-out: IC50 (72 h), PC-3", "description": "as §1, §2, §3, §4, §5, §6"}, "[5]": {"system": "MV-4-11 human leukemic cell line", "experiment": "In vitro antitumor activity assay (SRB), MV-4-11", "type": "cell-based", "conditions": "Homo sapiens, MV4-11; MV-4-11, 72 h, Table 3", "description": "as §1, §2\n(§7) According to cell growth rate, tumor cells in the log phase of growth were seeded into 96-well culture plates at 100 μL per well, and allowed to attach for 24 hours, followed by addition of a test compound or positive control at 10 μL per well. For each concentration, the test was carried out in triplicate wells. […] Finally, Tris solution was added at 150 μL per well, and the absorbance (A) was measured at a wavelength of 515 nm using a microplate reader. The growth inhibition on tumor cell proliferation was calculated according to the following equation:\n(§8) Growth Inhibition (%)=[(Absorbance of negative control−Absorbance of blank)−(Absorbance of sample−Absorbance of blank)]/(Absorbance of negative control−Absorbance of blank)×100% […]"}, "[6]": {"system": "Jurkat human leukemic cell line", "experiment": "In vitro antitumor activity assay (SRB), Jurkat", "type": "cell-based", "conditions": "Homo sapiens, 72 h, Table 3", "description": "as §1, §2, §7, §8"}, "[7]": {"system": "DAUDI human leukemic cell line", "experiment": "In vitro antitumor activity assay (SRB), Daudi", "type": "cell-based", "conditions": "Homo sapiens, 72 h, Table 3", "description": "as §1, §2, §7, §8"}, "[8]": {"system": "HT1080 human fibrosarcoma cell line", "experiment": "In vitro antitumor activity assay (SRB), HT1080", "type": "cell-based", "conditions": "Homo sapiens, HT-1080; HT1080, 72 h, Table 3", "description": "as §1, §2, §7, §8"}, "[9]": {"system": "NCI-H460 human lung carcinoma cell line", "experiment": "In vitro antitumor activity assay (SRB), NCI-H460", "type": "cell-based", "conditions": "Homo sapiens; NCI-H460, 72 h, Table 3", "description": "as §1, §2, §7, §8"}, "[10]": {"system": "NCI-H2228 human lung carcinoma cell line", "experiment": "In vitro antitumor activity assay (SRB), NCI-H2228", "type": "cell-based", "conditions": "Homo sapiens; NCI-H2228, 72 h, Table 3", "description": "as §1, §2, §7, §8"}, "[11]": {"system": "AGS human gastric adenocarcinoma cell line", "experiment": "In vitro antitumor activity assay (SRB), AGS", "type": "cell-based", "conditions": "Homo sapiens, 72 h, Table 3", "description": "as §1, §2, §7, §8"}, "[12]": {"system": "BGC-823 human gastric adenocarcinoma cell line", "experiment": "In vitro antitumor activity assay (SRB), BGC-823", "type": "cell-based", "conditions": "Homo sapiens; BGC-823, 72 h, Table 3", "description": "as §1, §2, §7, §8"}, "[13]": {"system": "MDA-MB-231 human breast carcinoma cell line", "experiment": "In vitro antitumor activity assay (SRB), MDA-MB-231", "type": "cell-based", "conditions": "Homo sapiens; MDA-MB-231, 72 h, Table 3", "description": "as §1, §2, §7, §8"}, "[14]": {"system": "HepG2 human-derived tumor cell line", "experiment": "In vitro antitumor activity assay (SRB), HepG2", "type": "cell-based", "conditions": "Homo sapiens; HepG2, 72 h, Table 3"}, "[15]": {"system": "Hep3B human hepatic carcinoma cell line", "experiment": "In vitro antitumor activity assay (SRB), Hep3B", "type": "cell-based", "conditions": "Homo sapiens, 72 h, Table 3", "description": "as §1, §2, §7, §8"}, "[16]": {"system": "QGY-7703 human hepatic carcinoma cell line", "experiment": "In vitro antitumor activity assay (SRB), QGY7703", "type": "cell-based", "conditions": "Homo sapiens, QGY-7703; QGY7703, 72 h, Table 3", "description": "as §1, §2, §7, §8"}, "[17]": {"system": "A498 renal carcinoma cell line", "experiment": "In vitro antitumor activity assay (SRB), A498", "type": "cell-based, human", "conditions": "Homo sapiens; A498, 72 h, Table 3", "description": "as §1, §2, §7, §8"}, "[18]": {"system": "HCT-116 human-derived tumor cell line", "experiment": "In vitro antitumor activity assay (SRB), HCT-116", "type": "cell-based", "conditions": "Homo sapiens; HCT-116, 72 h, Table 3", "description": "as §1, §2, §7, §8"}, "[19]": {"system": "A431 human skin carcinoma cell line", "experiment": "In vitro antitumor activity assay (SRB), A431", "type": "cell-based", "conditions": "Homo sapiens, A-431; A431, 72 h, Table 3", "description": "as §1, §2, §7, §8"}, "[20]": {"system": "PANC-1 human pancreatic carcinoma cell line", "experiment": "In vitro antitumor activity assay (SRB), PANC-1", "type": "cell-based", "conditions": "Homo sapiens; PANC-1, 72 h, Table 3", "description": "as §1, §2, §7, §8"}, "[21]": {"system": "RPMI-8226 human bone carcinoma cell line", "experiment": "In vitro antitumor activity assay (SRB), RPMI8226", "type": "cell-based", "conditions": "Homo sapiens, RPMI-8226; RPMI8226, 72 h, Table 3", "description": "as §1, §2, §7, §8"}, "[22]": {"system": "U87-MG human brain carcinoma cell line", "experiment": "In vitro antitumor activity assay (SRB), U87-MG", "type": "cell-based", "conditions": "Homo sapiens, U-87 MG, 72 h, Table 3", "description": "as §1, §2, §7, §8"}},
  "data": [
    {"smiles": "C[C@]12CC[C@H](OC(=O)NC3CCNCC3)C[C@H]1CC[C@@H]1[C@@H]2CC[C@]2(C)[C@@H](c3ccc(=O)oc3)CC[C@]12O", "note": "[II1E-01]", "values": [
      {"measurement": "IC50", "setting": "[1]", "value": 1.4, "unit": "nM"},
      {"measurement": "IC50", "setting": "[2]", "value": "0.77 ± 0.28", "unit": "nM"},
      {"measurement": "IC50", "setting": "[3]", "value": "9.97 ± 1.45", "unit": "nM"},
      {"measurement": "IC50", "setting": "[4]", "value": "0.41 ± 0.1", "unit": "nM"},
      {"measurement": "IC50", "setting": "[5]", "value": "1.12 ± 0.29", "unit": "nM"},
      {"measurement": "IC50", "setting": "[6]", "value": "1.09 ± 0.26", "unit": "nM"},
      {"measurement": "IC50", "setting": "[7]", "value": "2.86 ± 0.21", "unit": "nM"},
      {"measurement": "IC50", "setting": "[8]", "value": "2.9 ± 0.33", "unit": "nM"},
      {"measurement": "IC50", "setting": "[9]", "value": "0.56 ± 0.05", "unit": "nM"},
      {"measurement": "IC50", "setting": "[10]", "value": "2.5 ± 0.34", "unit": "nM"},
      {"measurement": "IC50", "setting": "[11]", "value": "9.62 ± 0.69", "unit": "nM"},
      {"measurement": "IC50", "setting": "[12]", "value": "0.81 ± 0.07", "unit": "nM"},
      {"measurement": "IC50", "setting": "[13]", "value": "7.46 ± 0.33", "unit": "nM"},
      {"measurement": "IC50", "setting": "[14]", "value": "0.51 ± 0.04", "unit": "nM"},
      {"measurement": "IC50", "setting": "[15]", "value": "> 1000", "unit": "nM"},
      {"measurement": "IC50", "setting": "[16]", "value": "1.11 ± 0.08", "unit": "nM"},
      {"measurement": "IC50", "setting": "[17]", "value": "0.4 ± 0.03", "unit": "nM"},
      {"measurement": "IC50", "setting": "[18]", "value": "2.91 ± 0.09", "unit": "nM"},
      {"measurement": "IC50", "setting": "[19]", "value": "2.62 ± 0.19", "unit": "nM"},
      {"measurement": "IC50", "setting": "[20]", "value": "0.72 ± 0.19", "unit": "nM"},
      {"measurement": "IC50", "setting": "[21]", "value": "1.53 ± 0.1", "unit": "nM"},
      {"measurement": "IC50", "setting": "[22]", "value": "1.28 ± 0.36", "unit": "nM"}
    ]}
  ]
}
